Where two headings read alike, the source gives them in different places.
How the values were obtained:
LZK [1] = molecular target: T1, LZK (Homo sapiens (Human), UniProt O43283); assay: KD determination, Eurofins DiscoveRx Kd-Elect; assay type: binding
Experimental: (§1) Substituents were varied to improve binding affinity to LZK and selectivity over DLK. KD values were measured by Eurofins DiscoveRx using the Kd-Elect system. Parallel artificial membrane permeability assay (PAMPA) values were measured by Cyprotex.
(§2) KD values were calculated with a standard dose-response curve using the Hill equation: […]
(§3) The Hill Slope was set to −1. Curves were fitted using a non-linear least square fit with the Levenberg-Marquardt algorithm.

DLK = DLK (Homo sapiens (Human), UniProt Q12852); assay: KD determination, Eurofins DiscoveRx Kd-Elect; assay type: binding
Experimental: as §1, §2, §3

LZK [2] = molecular target: T1, LZK; assay: Phospho-JNK ELISA in doxycycline-induced CAL33 cells expressing LZK; assay type: cell-based
Source text: The ViraPower HiPerform T-REx Gateway Expression System (Invitrogen) was used to generate cells with tetracycline-inducible expression of LZK. In brief, wild-type (WT) or drug-resistant mutant (Q240S) LZK (cloned into pLenti6.3/TO/V5-DEST vector) and pLenti3.3/TR (for tetracycline repressor expression) were transfected into 293FT cells using Lipofectamine 2000 to generate lentiviral stock. Cell lines were generated by antibiotic selection (blasticidin [Gibco] and geneticin [Gibco]). Doxycycline (Sigma-Aldrich) was used at 1 μg/mL to induce LZK expression.
A PathScan® Phospho-SAPK/JNK (Thr183/Tyr185) Sandwich ELISA Assay (Cell Signaling Technology) was used for ELISA assays following the manufacturer's protocol. In general, 500,000 cells were plated and treated with doxycycline the following day where appropriate and incubated at 37° C. for 48 hours. Cells were treated with the drug compound or control in 5% FBS media for 1 hour. After appropriate treatment time, cells were lysed on ice with 1× Cell Lysis Buffer (Cell Signaling Technology) supplemented with phosphatase and protease inhibitors (Sigma). Each diluted cell lysate was added to Phospho-SAPK/JNK (Thr183/Tyr185)Rabbit mAb Coated microwells in triplicate and incubated overnight at 4° C. Samples were treated with the following antibodies and incubated at 37° C. for 1 hour and 30 minutes, respectively: Detection Antibody and HRP-Linked secondary antibody. Samples were washed between treatments using 1× Wash Buffer according to the manufacturer's protocol. TMB substrate was added to each well and incubated at 37° C. for 10 minutes. Following this, STOPsolution was added to each well and absorbance was measured at 450 nm using iMark™ Microplate Absorbance Reader (Bio-Rad). Graphs display relative phospho-JNK levels.

OVCAR5 cells = assay: Colony formation assay; assay type: cell-based
Experimental: (§4) Crystal violet assays were used to assess relative cell growth and survival after treatment with specific compounds. In general, cells were plated in triplicate in 12-well plates for 24 hours before drug treatments were added using 10% FBS media. The plates were incubated for 14 days, with the media and drug being replaced every 48 hours. The cells were then washed with phosphate-buffered saline and fixed in ice-cold methanol before being stained with 0.5% crystal violet (Sigma-Aldrich) in 25% methanol. Images were taken using a ChemiDoc MP Imaging System (Bio Rad), and for quantification, the crystal violet stain was dissolved in 33% acetic acid, incubated for 20 minutes with shaking, and read at 595 nm using iMark™ Microplate Absorbance Reader (Bio-Rad). Graphs display percent colony formation relative to the DMSO-treated control sample.

[3] = tested on: ESCC cells with the 3q amplicon; assay: Colony formation assay in ESCC cells; assay type: cell-based; conditions: drug resistant mutant form of LZK
Source text: Crystal violet assays were used to assess relative cell growth and survival after treatment with specific compounds. […] Graphs display percent colony formation relative to the DMSO-treated control sample.

[4] = tested on: 3q-amplified HNSCC PDX tumors; assay: HNSCC PDX mouse model with amplified MAP3K13 (LZK); assay type: in vivo
Experimental: Tumor pieces at approximately 2×2×2 mm^3 from an HNSCC patient containing amplified MAP3K13 were implanted subcutaneously with Matrigel (Corning) in the mice according to the SOP50101 Implantation and Cryopreservation of Tissue for PDX Generation protocol from the NIH Patient-Derived Models Repository (PDMR). Five NSG mice were used for initial implantation of the cryopreserved tumor fragments. Body weights and tumor size were measured twice weekly. […] For the efficacy study, passage one of the fresh PDX tumor fragments were implanted into NSG mice using the protocol stated previously. […] Body weights and tumor sizes were measured twice weekly. At the endpoint of each study, tumors were harvested, cleaned, weighed, and photographed for analysis.

LZK [5] = molecular target: T1, LZK; assay: Immunoblot of downstream JNK phosphorylation in CAL33 cells with dox-inducible LZK; assay type: cell-based
Experimental: (§5) The ViraPower HiPerform T-REx Gateway Expression System (Invitrogen) was used to generate cells with tetracycline-inducible expression of LZK. […] Cell lines were generated by antibiotic selection (blasticidin [Gibco] and geneticin [Gibco]). Doxycycline (Sigma-Aldrich) was used at 1 μg/mL to induce LZK expression.
(§6) After appropriate treatment time, cells were washed with ice-cold phosphate-buffered saline without Ca and Mg (Quality Biological) and then lysed on ice with RIPA buffer ([…], 1.0% IGEPAL® CA-630, 0.5% sodium deoxycholate, 0.1% SDS, 50 mM Tris, pH 8.0) (Sigma-Aldrich) supplemented with protease inhibitor tablet (Sigma-Aldrich) and phosphatase inhibitor cocktails 2 and 3 (Sigma-Aldrich) followed by centrifugation at 15,000 rpm for 10 minutes at 4° C. Protein concentrations were determined from the cell lysate by using 660 nm Protein Assay Reagent (Pierce). Cell extracts were denatured, subjected to SDS-PAGE, transferred to PVDF membranes (Bio-Rad) and blocked for 2 hours using 5% bovine serum albumin (BSA) in phosphate-buffered saline and 0.1% Tween® 20 (PBS-T). The membranes were incubated with the specific antibodies overnight in 5% BSA/PBST at 4° C. followed by a 1 hour incubation with the appropriate horseradish peroxidase-conjugated secondary antibodies and signal was detected by chemiluminescence (Thermo Fisher).

LZK [6] = molecular target: LZK (Homo sapiens, UniProt O43283, Q240S); assay: as above; assay type: cell-based; conditions: in the presence of inhibitor
Experimental: as §5, §6

CAL33 xenografts = assay: HNSCC CAL33 xenograft mouse model; conditions: 100 mg/kg
[7] = tested on: ESCC with the 3q amplicon (KYSE30, and KYSE70 cells); assay: MTS assay in ESCC cells; assay type: cell-based; conditions: compared to control ESCC cells lacking amplified LZK (KYSE410 and OE19)
Experimental: A Cell Titer 96 AQueous One Solution Cell Proliferation Assay (Promega) was used for MTS assays following the manufacturer's protocol. […] Doxycycline was added where appropriate, and cells were incubated for 72 hours. MTS was added, cells were incubated for two hours, and absorbance was measured at 490 nm using iMark™ Microplate Absorbance Reader (Bio-Rad). Graphs display percent cell viability relative to the DMSO-treated control sample. EC50 values were determined using GraphPad Prism 8.

NCI-H520 cells = assay: Colony formation assay; assay type: cell-based; conditions: 500 nM
Experimental: as §4

BICR56 cells [8] = assay: Colony formation assay; assay type: cell-based; conditions: 200 nM, 14 days
Experimental: as §4

LK2 cells = assay: Colony formation assay; assay type: cell-based; conditions: 500 nM
Experimental: as §4

CAL33 cells = assay: Colony formation assay; assay type: cell-based; conditions: 200 nM, 14 days
Experimental: as §4

MSK921 cells = assay: Colony formation assay; assay type: cell-based; conditions: 200 nM, 14 days, cells lacking amplified MAP3K13
Experimental: as §4

LZK [9] = assay: Immunoblot of JNK signaling in 293T cells overexpressing LZK; assay type: cell-based; conditions: one-hour treatment
Experimental: LZK cDNA was prepared from RNA extracted from 293T cells, attB flanking regions were added by PCR, and the BP Clonase reaction was used to insert LZK into pDONR221. From here, the Invitrogen Gateway system was used for cloning into destination vectors. FLAG-tagged (pReceiver-M12, GeneCopoeia) destination vector was conveed into Gateway destination vector for use in transient overexpression assays. The pLenti6.3/TO/V5-DEST vector was used to generate stable overexpression. The drug-resistant construct for LZK was a Q240S mutation that was introduced using a Site-Directed Mutagenesis Kit (Stratagene). The oligonucleotides are listed below in Table 18. 293T cells were transiently transfected using Lipofectamine 2000 (Invitrogen), according to the manufacturer's protocol, with OptiMEM (Gibco). […]
Generally, cells were plated in six-well or 35-mm plates for 24 hours, after which doxycycline was added or treatment with specific inhibitor was administered using 5% FBS media for 48 hours. […] Protein concentrations were determined from the cell lysate by using 660 nm Protein Assay Reagent (Pierce). […] The membranes were incubated with the specific antibodies overnight in 5% BSA/PBST at 4° C. followed by a 1 hour incubation with the appropriate horseradish peroxidase-conjugated secondary antibodies and signal was detected by chemiluminescence (Thermo Fisher).

BICR56 cells [10] = assay: MTS cell viability assay; assay type: cell-based; conditions: 72 hours MTS
Experimental: A Cell Titer 96 AQueous One Solution Cell Proliferation Assay (Promega) was used for MTS assays following the manufacturer's protocol. […] MTS was added, cells were incubated for two hours, and absorbance was measured at 490 nm using iMark™ Microplate Absorbance Reader (Bio-Rad). Graphs display percent cell viability relative to the DMSO-treated control sample. EC50 values were determined using GraphPad Prism 8.

c-MYC = assay: Western blot of c-MYC abundance; assay type: cell-based
Experimental: as §6, with “Generally, cells were plated in six-well or 35-mm plates for 24 hours, after which doxycycline was added or treatment with specific inhibitor was administered using 5% FBS media for 48 hours. After” for “After”

LZK [11] = molecular target: T1, LZK; assay: In vitro kinase assay, LZK phosphorylation of MKK7; assay type: biochemical
Experimental: The assay was performed with 100 μM ATP at 37° C. for 30 minutes. Following the addition of 4× reducing SDS sample buffer, proteins were resolved by sodium dodecyl sulfate-polyacrylamide gel electrophoresis (SDS-PAGE) and immunoblot analysis was performed as stated previously.

[12] = tested on: HNSCC PDX tumors lacking amplified LZK; assay: HNSCC PDX mouse models that lack amplified LZK; assay type: in vivo; conditions: 50 mg/kg, q.d., five days on/two days off
BEAS-2B cells = assay: Colony formation assay; assay type: cell-based, human; conditions: 200 nM, 14 days, cells lacking amplified MAP3K13
Experimental: as §4

[13] = b.i.d., five days on/two days off

T1 sequence (O43283 whole entry): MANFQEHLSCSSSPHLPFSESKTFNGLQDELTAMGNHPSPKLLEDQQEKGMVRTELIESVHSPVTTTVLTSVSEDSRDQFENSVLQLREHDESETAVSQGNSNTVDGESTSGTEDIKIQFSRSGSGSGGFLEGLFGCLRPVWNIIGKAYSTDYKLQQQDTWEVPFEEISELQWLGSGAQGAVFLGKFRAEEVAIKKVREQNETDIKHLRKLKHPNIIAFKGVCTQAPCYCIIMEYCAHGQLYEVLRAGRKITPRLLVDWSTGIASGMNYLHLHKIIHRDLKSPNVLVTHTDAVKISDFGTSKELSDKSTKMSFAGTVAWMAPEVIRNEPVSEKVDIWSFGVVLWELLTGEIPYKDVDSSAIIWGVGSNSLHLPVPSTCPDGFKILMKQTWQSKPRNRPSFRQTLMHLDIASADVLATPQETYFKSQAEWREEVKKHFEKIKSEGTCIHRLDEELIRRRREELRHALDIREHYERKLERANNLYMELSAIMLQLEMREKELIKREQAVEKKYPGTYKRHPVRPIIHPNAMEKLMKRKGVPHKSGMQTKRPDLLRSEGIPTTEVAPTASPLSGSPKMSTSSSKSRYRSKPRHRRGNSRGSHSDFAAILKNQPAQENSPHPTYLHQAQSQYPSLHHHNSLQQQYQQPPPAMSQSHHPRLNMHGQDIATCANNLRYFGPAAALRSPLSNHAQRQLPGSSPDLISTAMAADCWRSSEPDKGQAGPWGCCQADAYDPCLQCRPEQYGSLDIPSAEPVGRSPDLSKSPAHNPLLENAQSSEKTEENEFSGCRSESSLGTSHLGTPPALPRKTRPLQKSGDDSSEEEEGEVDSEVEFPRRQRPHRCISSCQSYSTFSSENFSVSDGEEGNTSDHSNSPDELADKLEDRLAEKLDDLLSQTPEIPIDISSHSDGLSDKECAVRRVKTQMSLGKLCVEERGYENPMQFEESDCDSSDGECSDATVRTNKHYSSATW
DLK, sequence (Q12852 whole entry): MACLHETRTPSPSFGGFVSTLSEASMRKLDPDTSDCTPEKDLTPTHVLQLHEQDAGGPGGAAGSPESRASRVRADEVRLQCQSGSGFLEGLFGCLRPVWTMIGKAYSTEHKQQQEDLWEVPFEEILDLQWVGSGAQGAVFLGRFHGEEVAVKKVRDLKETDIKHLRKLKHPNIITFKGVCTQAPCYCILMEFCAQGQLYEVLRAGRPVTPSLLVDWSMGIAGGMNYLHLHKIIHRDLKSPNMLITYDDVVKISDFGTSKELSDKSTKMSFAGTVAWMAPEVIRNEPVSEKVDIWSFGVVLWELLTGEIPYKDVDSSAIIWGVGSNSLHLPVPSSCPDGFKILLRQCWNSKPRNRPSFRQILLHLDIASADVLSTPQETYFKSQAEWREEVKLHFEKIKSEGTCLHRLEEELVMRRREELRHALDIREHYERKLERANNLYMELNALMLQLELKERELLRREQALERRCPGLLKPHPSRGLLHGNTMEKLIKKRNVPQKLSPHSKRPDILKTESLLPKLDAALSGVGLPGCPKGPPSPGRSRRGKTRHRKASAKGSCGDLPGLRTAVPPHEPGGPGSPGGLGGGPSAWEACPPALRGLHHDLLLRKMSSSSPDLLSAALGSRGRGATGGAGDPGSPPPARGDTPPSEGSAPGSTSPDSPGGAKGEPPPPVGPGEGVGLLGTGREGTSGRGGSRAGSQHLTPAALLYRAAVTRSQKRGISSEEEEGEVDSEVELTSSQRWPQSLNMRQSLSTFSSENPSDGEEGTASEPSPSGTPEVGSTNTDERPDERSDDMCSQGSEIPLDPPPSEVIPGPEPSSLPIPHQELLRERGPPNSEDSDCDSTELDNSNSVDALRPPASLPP
LZK (Homo sapiens, UniProt O43283, Q240S), sequence (O43283 whole entry Q240S): as the sequence (O43283 whole entry) above, with Q240S counted along it

## Cc1cnc(Nc2cc(C3CCN(CC4CC4)CC3)cc(N3CCC(F)(F)C3)n2)cn1 [compound 161]
LZK [1]; ratio of LZK Kd to DLK Kd
  Ratio (LZK/DLK): 0.8
LZK [1]; read-out: Kd values
  Kd: 3.3 nM
LZK [1]; read-out: LZK KD
  Kd: 3.3 nM
DLK
  Kd: 4.3 nM
LZK [2]
  dose-dependent inhibition of LZK: dose-dependent inhibition
OVCAR5 cells
  sensitivity (colony formation): sensitive
[3]
  sensitivity (colony formation) of ESCC cells expressing LZK^Q240S: resistant to compound 161

## N#Cc1ccnc(Nc2cc(C3CCN(C4COC4)CC3)cc(N3CCC(F)(F)C3)n2)c1 [GNE-3511]
[4]; 50 mg/kg daily
  body weights of the mice: no effect on body weights
[4]; 50 mg/kg, n=10
  mice with no detectable tumors: 3 mice
[4]; 50 mg/kg, q.d., five days on/two days off
  tumor growth: significantly suppress HNSCC tumor growth in vivo with almost complete tumor regression
LZK [5]; 250 nM
  duration of JNK pathway inactivation: up to 72 hours
  time at which LZK activity toward JNK was inhibited: ≤ 15 min
LZK [5]; Western blot
  inhibition of LZK activity in cells (downstream JNK phosphorylation): potent LZK inhibitor in cells
LZK [6]
  JNK signaling with LZK^Q240S drug-resistant mutant expression: maintained catalytic activity
CAL33 xenografts
  cleaved caspase-3 expression (IHC) in tumors: increase in cleaved caspase-3 expression
  tumor growth: tumor growth was suppressed
CAL33 xenografts; [13]
  body weight: decreases in body weight
  toxicity: terminated early due to toxicity
[7]
  sensitivity (viability): sensitive
NCI-H520 cells
  reduction in colony formation: 55%
BICR56 cells [8]
  reduction in colony formation: ≥ 80%
LK2 cells
  reduction in colony formation: 45%
CAL33 cells
  reduction in colony formation: ≥ 80%
MSK921 cells
  reduction in colony formation: minor reduction in colony formation
LZK [9]
  specificity of LZK inhibition (rescue of JNK signaling by LZK^Q240S): specifically inhibits LZK
BICR56 cells [10]
  IC50: 410 ± 59.6 nM
c-MYC; CAL33 cells treated with inhibitor
  c-MYC levels with LZK^Q240S expression: rescued loss in c-MYC levels
c-MYC; CAL33 cells, 500 nM, within the first hour, maintained for 72 hours
  c-MYC levels: reduction in c-MYC levels
LZK [11]
  in vitro phosphorylation of MKK7: decreased in vitro phosphorylation of MKK7
[12]
  tumor volumes: no decrease in tumor volumes
BEAS-2B cells
  reduction in colony formation: minor reduction in colony formation
